Results: publication PMC7673538 (PLoS Biology, 2020)
Values joined by “and” are separate entries in the source; they are usually repeats but may differ in a detail not shown here. Identical values can stand only once. Like-named read-outs stand apart in the source and are kept apart here.

How the values were obtained:
EV-D68 = experiment: microbe, parasite or virus in culture; type: cell-based, enterovirus D68; conditions: for EC50: Enterovirus D
HRV-A2 [1] = experiment: microbe, parasite or virus in culture; type: cell-based, human rhinovirus; conditions: for EC50: Human rhinovirus sp.
HRV-B14 [2] = experiment: microbe, parasite or virus in culture; type: cell-based, human rhinovirus
CV-B3 [3] = experiment: microbe, parasite or virus in culture; type: cell-based, coxsackievirus B3; conditions: Enterovirus B
CV-B3 [4] = experiment: microbe, parasite or virus in culture; type: cell-based, coxsackievirus B3; conditions: Enterovirus B, CVB3, BGM
[5] = test system: representative EVs and RVs; type: cell-based
EV-A71 (strain BrCr) = type: cell-based, enterovirus A71
CV-A24 (strain Joseph) = type: cell-based, coxsackievirus A24; conditions: compound concentration 1 µM
EV-D68 (strain Fermon) = type: cell-based, enterovirus D68
HRV-A2 [6] = type: cell-based, human rhinovirus
HRV-B14 [7] = type: cell-based, human rhinovirus; conditions: compound concentration 0.1 µM

SMILES: COc1ccc(N(Cc2ccc(F)cc2)C(=O)c2ccco2)cc1 [Compound 1, N-(4-fluorobenzyl)-N-(4-methoxyphenyl)furan-2-carboxamide]
- Figure 7 dose-response raw data, EV-D68 (triplicate values) (EV-D68; Concentration 10 µM): 100.368 and 102.702 and 104.422
- EC50 (EV-D68; EVD68, HeLa R19, read-out: EC50 EV-D68 Experiement 3): 0.31 µM
- EC50 (EV-D68; EVD68, HeLa R19, read-out: EC50 EV-D68 Experiment 1): 0.25 µM
- EC50 (EV-D68; EVD68, HeLa R19, read-out: EC50 EV-D68 Experiment 2): 0.39 µM
- EC50 (EV-D68; EVD68, HeLa R19, read-out: EC50 EV-D68 strain 4310900947): 3.65 ± 0.34 µM
- EC50 (EV-D68; EVD68, HeLa R19, read-out: EC50 EV-D68 strain 4310901348): 4.47 ± 0.13 µM
- EC50 (EV-D68; EVD68, HeLa R19, read-out: EC50 EV-D68 strain 4310902042): 4.05 ± 0.65 µM
- EC50 (EV-D68; EVD68, HeLa R19, read-out: EC50 EV-D68 strain 4310902284): 2.23 ± 0.12 µM
- EC50 (EV-D68; EVD68, HeLa R19, read-out: EC50 EV-D68 strain 4311000742): 3.83 ± 0.4 µM
- EC50 (EV-D68; EVD68, HeLa R19, read-out: EC50 Exp2): 1.95 µM
- Figure 7 dose-response raw data, HRV-A2 (triplicate values) (HRV-A2 [1]; Concentration 0.0412 µM): 7.118 and 8.563 and 11.1417
- Figure 7 dose-response raw data, HRV-A2 (triplicate values) (HRV-A2 [1]; Concentration 0.1235 µM): 6.499 and 7.221 and 5.983
- Figure 7 dose-response raw data, HRV-A2 (triplicate values) (HRV-A2 [1]; Concentration 0.3704 µM): 11.7607 and 8.975 and 8.666
- Figure 7 dose-response raw data, HRV-A2 (triplicate values) (HRV-A2 [1]; Concentration 3.3333 µM): 6.087 and 4.436 and 5.983
- Figure 7 dose-response raw data, HRV-A2 (triplicate values) (HRV-A2 [1]; Concentration 33.3333 µM): 4.849 and 8.666 and 8.769
- Figure 7 dose-response raw data, HRV-A2 (triplicate values) (HRV-A2 [1]; Concentration 100 µM): 4.849 and 8.666 and 8.769
- EC50 (HRV-A2 [1]; HRVA2, HeLa R19, read-out: EC50 HRV-A2): > 30 µM
- EC50 (HRV-A2 [1]; HRVA2, HeLa R19, read-out: EC50 HRV-A2 Average): > 30 µM
- EC50 (HRV-A2 [1]; HRVA2, HeLa R19, read-out: EC50 HRV-A2 Experiement 3): > 30 µM
- EC50 (HRV-A2 [1]; HRVA2, HeLa R19, read-out: EC50 HRV-A2 Experiment 1): > 30 µM
- EC50 (HRV-A2 [1]; HRVA2, HeLa R19, read-out: EC50 HRV-A2 Experiment 2): > 30 µM
- inhibition of HRV-B14 replication (in words) (HRV-B14 [2]): antiviral activity
- Figure 7 dose-response raw data, HRV_B14 (triplicate values) (HRV-B14 [2]; Concentration 0.0046 µM): 15.2266 and 14.5606
- Figure 7 dose-response raw data, HRV_B14 (triplicate values) (HRV-B14 [2]; Concentration 0.0137 µM): 15.2266 and 14.5606
- Figure 7 dose-response raw data, HRV_B14 (triplicate values) (HRV-B14 [2]; Concentration 0.0412 µM): 15.2266 and 14.5606 and 20.943
- Figure 7 dose-response raw data, HRV_B14 (triplicate values) (HRV-B14 [2]; Concentration 0.3704 µM): 23.8668 and 30.9898 and 27.193
- Figure 7 dose-response raw data, HRV_B14 (triplicate values) (HRV-B14 [2]; Concentration 1.1111 µM): 29.6577 and 30.8788 and 30.9898
- Figure 7 dose-response raw data, HRV_B14 (triplicate values) (HRV-B14 [2]; Concentration 3.3333 µM): 15.2266 and 14.5606
- Figure 7 dose-response raw data, HRV_B14 (triplicate values) (HRV-B14 [2]; Concentration 11.1111 µM): 71.9426 and 62.9417 and 74.4773
- Figure 7 dose-response raw data, HRV_B14 (triplicate values) (HRV-B14 [2]; Concentration 33.3333 µM): 100.034 and 89.1582 and 86.605
- Figure 7 dose-response raw data, HRV_B14 (triplicate values) (HRV-B14 [2]; Concentration 100 µM): 104.147 and 89.1582 and 86.605
- EC50 (HRV-B14 [2]; Human rhinovirus sp., HRVB14, HeLa R19, read-out: EC50 Exp1): 10.8 µM
- EC50 (HRV-B14 [2]; Human rhinovirus sp., HRVB14, HeLa R19, read-out: EC50 Exp2): 13.9 µM
- EC50 (HRV-B14 [2]; Human rhinovirus sp., HRVB14, HeLa R19, read-out: EC50 HRV-B14): 10.8 ± 1.27 µM
- EC50 (HRV-B14 [2]; Human rhinovirus sp., HRVB14, HeLa R19, read-out: EC50 HRV-B14 Experiement 3): 11.1 µM
- EC50 (HRV-B14 [2]; Human rhinovirus sp., HRVB14, HeLa R19, read-out: EC50 HRV-B14 Experiment 1): 12.2 µM
- EC50 (HRV-B14 [2]; Human rhinovirus sp., HRVB14, HeLa R19, read-out: EC50 HRV-B14 Experiment 2): 9.16 µM
- EC50 (HRV-B14 [2]; read-out: EC50 HRV-B14): 12.4 ± 1.51 µM
- EC50 (CV-B3 [3]; CVB3, HAP1, read-out: EC50 Hap1 Average): 1.57 µM
- EC50 (CV-B3 [3]; CVB3, HAP1, read-out: Exp 1 EC50 Hap1): 1.49 µM
- EC50 (CV-B3 [3]; CVB3, HAP1, read-out: Exp 2 EC50 Hap1): 1.65 µM
- EC50 (CV-B3 [4]; read-out: EC50 BGM Average): 1.66 µM
- EC50 (CV-B3 [4]; read-out: Exp 1 EC50 BGM): 1.43 µM
- EC50 (CV-B3 [4]; read-out: Exp 2 EC50 BGM): 1.89 µM
- inhibition of contemporary/clinical isolates of EV-A71, CV-A24v and EV-D68 (in words) [5]: only inhibited the contemporary strains of EV-D68
- virus titer, TCID50/ml (Figure 2A) (EV-A71 (strain BrCr); compound concentration 0.001 µM): 316228 TCID50/ml
- virus titer, TCID50/ml (Figure 2A) (EV-A71 (strain BrCr); compound concentration 0.01 µM): 316228 TCID50/ml
- virus titer, TCID50/ml (Figure 2A) (EV-A71 (strain BrCr); compound concentration 0.1 µM): 316228 TCID50/ml
- virus titer, TCID50/ml (Figure 2A) (EV-A71 (strain BrCr); compound concentration 0.3 µM): 316228 TCID50/ml
- virus titer, TCID50/ml (Figure 2A) (CV-A24 (strain Joseph)): 100000 TCID50/ml and 169824 TCID50/ml and 162341 TCID50/ml
- virus titer, TCID50/ml (Figure 2A) (EV-D68 (strain Fermon); compound concentration 3 µM): 31622.8 TCID50/ml and 21379.6 TCID50/ml and 35481.3 TCID50/ml
- virus titer, TCID50/ml (Figure 2A) (EV-D68 (strain Fermon); compound concentration 10 µM): 31622.8 TCID50/ml and 21379.6 TCID50/ml and 35481.3 TCID50/ml
- virus titer, TCID50/ml (Figure 2A) (EV-D68 (strain Fermon); compound concentration 100 µM): 31622.8 TCID50/ml and 21379.6 TCID50/ml and 35481.3 TCID50/ml
- virus titer, TCID50/ml (Figure 2A) (HRV-A2 [6]; compound concentration 0.1 µM): 316278 TCID50/ml and 312278 TCID50/ml
- virus titer, TCID50/ml (Figure 2A) (HRV-A2 [6]; compound concentration 0.3 µM): 169824 TCID50/ml and 100000 TCID50/ml
- virus titer, TCID50/ml (Figure 2A) (HRV-A2 [6]; compound concentration 3 µM): 354813 TCID50/ml
- virus titer, TCID50/ml (Figure 2A) (HRV-A2 [6]; compound concentration 100 µM): 169824 TCID50/ml and 188844 TCID50/ml
- virus titer, TCID50/ml (Figure 2A) (HRV-A2 [6]; compound concentration 150 µM): 354813 TCID50/ml and 588844 TCID50/ml
- virus titer, TCID50/ml (Figure 2A) (HRV-B14 [7]): 10000000 TCID50/ml
- cytotoxic effect (in words) (HeLa R19 cells): did not show any adverse cytotoxic effect
